Assay results as given in patent publication US10590137B2, “Mercaptopurine hemihydrate” (THE REGENTS OF THE UNIVERSITY OF MICHIGAN, priority 2016, dated 2020).
Read-outs that look alike come from different tables or passages of the source.

Key:
[1] = pharmacokinetic studies in rats (oral suspension vs IV); assay type: in vivo, Male Sprague-Dawley rats; settings: rat; for % F (bioavailability): oral 30 mg/kg vs IV 15 mg/kg monohydrate; for AUC / Cmax / Tmax: oral gavage 30 mg/kg suspension, 30 mg/kg; for AUC / Cmax: plasma
Method: The bioavailability of the three forms was determined by comparison of suspension and intravenous administration in order to quantify the effect. […] Since the Tmax of the hemihydrate was much higher than the other two forms, it seems more compound was able to be absorbed overall even though over a somewhat longer time period, whereas the monohydrate and anhydrate were limited due to the solubility of the monohydrate form (FIG. 3).
Pharmacokinetic studies in rats were performed at Avastus Preclinical Services, Cambridge, Mass. All procedures were performed in accordance with the Guide for Care and Use of Laboratory Animals and were approved by the Avastus Institutional Animal Care and Use Committee. Male Sprague-Dawley rats weighing 200-300 g were dosed with mercaptopurine via oral gavage with a dosing volume of 5 mL/kg and a dose of 30 mg mercaptopurine form/kg or via IV administration at a dosing volume of 5 mL/kg and a dose of 15 mg mercaptopurine monohydrate/kg. Each group consisted of three rats, with one oral administration group for each form of mercaptopurine, and one IV administration group using the monohydrate form for reference. Blood samples were collected at time points of 15, 30, 60, 120, 240 minutes as well as 8 and 24 hours post dose. An additional time point at 5 minutes was taken for the IV administration group. Samples were centrifuged and the decanted plasma samples were stored at −80° C. until analysis.
The plasma samples were analyzed via LC-MS/MS using an Agilent 6410 mass spectrometer coupled with an Agilent 1200 HPLC and a CTC PAL chilled autosampler, all controlled by MassHunter software (Agilent). All plasma samples were crashed with three volumes of methanol containing an […] and centrifuged to remove precipitated protein before analysis. Samples were compared to a calibration curve prepared in rat blank plasma. Separation was performed on a C18 reverse phase HPLC column (Kinetex PFP, 2.6 μm, 2.1×50 mm) using an acetonitrile-water gradient system and peaks were analyzed by MS using ESI ionization in MRM mode. Peak area ratio to internal standard is used to interpolate plasma concentration for each sample from the calibration curve of peak area internal standard ratio to concentration. Pharmacokinetic parameters were fit using a custom WinNonlin analysis with PO dosing analysis. Area under the curve (AUC) for mercaptopurine was also calculated using the custom WinNonlin analysis. Cmax (maximum plasma concentration) and Tmax (time to reach maximum plasma concentration) were determined by visual inspection of the experimental data. The bioavailability (% F) was calculated from the following equation:
[formula] Frel was calculated with respect to the monohydrate form.

[2] = maximum solubility in water by turbidity measurements (CrystalBreeder); settings: at 37° C., Van't Hoff
Method: (§1) Solubility measurements were taken using a CrystalBreeder system (Technobis). Known amounts of solid compound and water were added to 0.3 mL clear round bottom vials equipped with a stir bar. The vials were sealed with a Teflon coated rubber crimped caps to prevent evaporation of solvent. Vials were loaded into one of the independently heated aluminum reactor blocks and turbidity measurements were taken using an LED light source and detector to measure particles in solution. Samples were heated to 85° C. at a rate of 0.2° C./min, held at 85° C. for 30 minutes, and then cooled to 0° C. at a rate of 0.2° C./min. Clear points were calculated based on the temperature at which 100% transmittance of solution was reached. Van't Hoff plots of concentration vs. time were produced from the data using CrystalClear software (Technobis) to determine the solubility of each form at different temperatures.

[3] = stability to hydration: slurry conversion monitored by non-contact Raman probe; assay type: physicochemical; settings: aqueous slurry; for time to convert to the monohydrate form: full conversion
Method: In order to determine the stability to hydration, slurries of the anhydrate and hemihydrate forms were monitored using a non-contact Raman probe.
Raman spectra during slurry conversion were collected using a Kaiser Optical Systems Raman Rxn Microprobe equipped with a Multi-Rxn non-contact optic, 785 nm laser, and a multi-channel CCD detector. Spectra were collected with a range of 150-3425 cm^−1 and then analyzed using the HoloGRAMS 4.1 software package (Kaiser). Calibration was performed using a HoloLab Calibration Accessory and a cyclohexane standard.

[4] = thermally-induced phase transitions by DSC and variable temperature PXRD; assay type: physicochemical; settings: for loss of crystallinity corresponding with a loss of water: variable temperature PXRD, conversion to anhydrate
Method: DSC analysis and variable temperature PXRD were used to analyse the thermally-induced phase transitions of the compounds.
Variable temperature PXRD data were collected on a Rigaku SmartLab diffractometer using Cu-Kα radiation (λ=1.54187 Å) and operating at 40 kV and 44 mA. Samples were placed on a glass cover slip on top of a copper block that was heated at 2° C./min using a J-KEM Model 210 temperature controller. The setup was covered with a housing of Kapton to keep heat in but allow X-rays to penetrate. The spectrum was collected by scanning […] from 20 to 29° with a step size of 0.01° and a step speed of 0.1 seconds. Powder patterns were processed using Jade 8 XRD Pattern Processing, Identification & Quantification analysis software.^1
Thermograms of the monohydrate and hemihydrate forms were recorded on a TA Instruments Q20 DSC. […] Calibration of the instrument was performed using an indium standard. Thermograms were analyzed using TA Universal Analysis 2000, V 4.5A.

some cancer lines = settings: cited from earlier work
[5] = at 37° C.; background statement; cited from earlier work
physchem = settings: water, 37 °C, thermodynamic from solid
Method: as §1

Sc1ncnc2nc[nH]c12 [Anhydrate, mercaptopurine]
% F (bioavailability) [1]: 2.9% | AUC [1]: 430 ± 30 ng·h/mL | Cmax [1]: 260 ± 10 ng/mL | Tmax [1]: 49.8 ± 17.4 min | average solubility in water [2]: 400 µg/mL | time to convert to the monohydrate form [3]: 2 to 5 h

Sc1ncnc2nc[nH]c12 [Hemihydrate, mercaptopurine hemihydrate]
% F (bioavailability) ([1]; hemihydrate): 3.8% | AUC ([1]; hemihydrate): 570 ± 120 ng·h/mL | Cmax ([1]; hemihydrate): 280 ± 110 ng/mL | Tmax ([1]; hemihydrate): 100 ± 34.8 min | dehydration temperature (water loss, endothermic event) ([4]; DSC / variable temperature PXRD): 240 °C | loss of crystallinity corresponding with a loss of water ([4]; hemihydrate): does not show any loss of crystallinity | average solubility in water ([2]; hemihydrate): 390 µg/mL | time to convert to the monohydrate form ([3]; hemihydrate): approximately 70 hours | time at which conversion to the monohydrate begins ([3]; onset): approximately 5 hours

S=c1[nH]cnc2nc[nH]c12 [Mercaptopurine]
IC50 (some cancer lines): 500 nM

Sc1ncnc2nc[nH]c12 [Monohydrate, mercaptopurine monohydrate]
Cmax ([1]; male, Sprague-Dawley, po, read-out: Cmax): 230 ± 50 ng/mL | % F (bioavailability) ([1]; monohydrate): 1.4% | AUC ([1]; monohydrate): 210 ± 60 ng·h/mL | Tmax ([1]; monohydrate): 49.8 ± 17.4 min | Tmax of merged endothermic event (water loss and loss of crystallinity) ([4]; open DSC pan): 177 °C | loss of crystallinity event ([4]; sealed DSC pan): ~190 °C | water loss event ([4]; sealed DSC pan): ~140 °C | loss of crystallinity corresponding with a loss of water ([4]; monohydrate): ~160 °C | water solubility [5]: 249 µg/mL | solubility (physchem): 249 µg/mL
